Results taken from patent publication US9340510B2, “Tetrahydroisoquinoline derivatives, pharmaceutical compositions and uses thereof” (Boehringer Ingelheim International GmbH, priority 2014, dated 2016).

target: human ACC2 (Homo sapiens (Human), UniProt O00763); assay: ACC2 assay: spectrophotometric 384 well assay (coupled lactate dehydrogenase/pyruvate kinase); format: biochemical; conditions: hACC2 construct lacking the 128 N-terminal amino acids, 25° C., 340 nm
Method: Spectrophotometric 384 Well Assay
Malonyl CoA formation by acetyl CoA carboxylases is stoichiometrically linked to the consumption of ATP. ACC2 activity is measured in a […] kinetic method measuring ADP generated during the ACC reaction using a coupled lactate dehydrogenase/pyruvate kinase reaction.
For biological testing, a human ACC2 construct which lacks the 128 amino acids at the N-terminus for increased solubility (nt 385-6966 in Genbank entry AJ575592) is cloned. The protein is then expressed in insect cells using a baculoviral expression system. Protein purification is performed by anion exchange.
All compounds are dissolved in dimethyl sulfoxide (DMSO) to a concentration of 10 mM.
Assay reactions are then carried out in 384-well plates, with hACC2 in an appropriate dilution and at final assay concentrations (f.c.) of 100 mM Tris (pH 7.5), 10 mM trisodium citrate, 25 mM KHCO3, 10 mM MgCl2, 0.5 mg/ml BSA, 3.75 mM reduced L-glutathione, 15 U/ml lactate dehydrogenase, 0.5 mM phosphoenolpyruvate, 15 U/ml pyruvate kinase, compounds at different concentrations at final DMSO concentrations of 1%.
The enzymatic reaction is then started by addition of a mixture of NADH, acetyl Coenzyme A (both […].) and ATP (500 uM f.c.). The decrease of the optical density (slope S) is then determined at 25° C. at a wavelength of 340 nm over 15 minutes in a spectrophotometric reader.
Each assay microtiter plate contains wells with vehicle instead of compound as controls for the non-inhibited enzyme (100% CTL; ‘HIGH’) and wells without acetyl-CoA as controls for non-specific NADH degradation (0% CTL; ‘LOW’).
The slope S is used for calculation of % CTL=(S(compound)−S(‘LOW’))/(S(‘HIGH’)−S(‘LOW’))*100. Compounds will give values between 100% CTL (no inhibition) and 0% CTL (complete inhibition).
For IC50 value determination, the sample slope in the presence of the test compound after subtraction of the low controls (S(compound)−S(‘LOW’)) are used.
An IC50 value is derived from the compound slopes at different dosages after subtraction of the low controls (S(compound)-S(‘LOW’)) by non-linear regression curve fitting (equation y=(A+((B−A)/(1+((C/x)^D))))).

Sequence of human ACC2 (O00763 129-2458): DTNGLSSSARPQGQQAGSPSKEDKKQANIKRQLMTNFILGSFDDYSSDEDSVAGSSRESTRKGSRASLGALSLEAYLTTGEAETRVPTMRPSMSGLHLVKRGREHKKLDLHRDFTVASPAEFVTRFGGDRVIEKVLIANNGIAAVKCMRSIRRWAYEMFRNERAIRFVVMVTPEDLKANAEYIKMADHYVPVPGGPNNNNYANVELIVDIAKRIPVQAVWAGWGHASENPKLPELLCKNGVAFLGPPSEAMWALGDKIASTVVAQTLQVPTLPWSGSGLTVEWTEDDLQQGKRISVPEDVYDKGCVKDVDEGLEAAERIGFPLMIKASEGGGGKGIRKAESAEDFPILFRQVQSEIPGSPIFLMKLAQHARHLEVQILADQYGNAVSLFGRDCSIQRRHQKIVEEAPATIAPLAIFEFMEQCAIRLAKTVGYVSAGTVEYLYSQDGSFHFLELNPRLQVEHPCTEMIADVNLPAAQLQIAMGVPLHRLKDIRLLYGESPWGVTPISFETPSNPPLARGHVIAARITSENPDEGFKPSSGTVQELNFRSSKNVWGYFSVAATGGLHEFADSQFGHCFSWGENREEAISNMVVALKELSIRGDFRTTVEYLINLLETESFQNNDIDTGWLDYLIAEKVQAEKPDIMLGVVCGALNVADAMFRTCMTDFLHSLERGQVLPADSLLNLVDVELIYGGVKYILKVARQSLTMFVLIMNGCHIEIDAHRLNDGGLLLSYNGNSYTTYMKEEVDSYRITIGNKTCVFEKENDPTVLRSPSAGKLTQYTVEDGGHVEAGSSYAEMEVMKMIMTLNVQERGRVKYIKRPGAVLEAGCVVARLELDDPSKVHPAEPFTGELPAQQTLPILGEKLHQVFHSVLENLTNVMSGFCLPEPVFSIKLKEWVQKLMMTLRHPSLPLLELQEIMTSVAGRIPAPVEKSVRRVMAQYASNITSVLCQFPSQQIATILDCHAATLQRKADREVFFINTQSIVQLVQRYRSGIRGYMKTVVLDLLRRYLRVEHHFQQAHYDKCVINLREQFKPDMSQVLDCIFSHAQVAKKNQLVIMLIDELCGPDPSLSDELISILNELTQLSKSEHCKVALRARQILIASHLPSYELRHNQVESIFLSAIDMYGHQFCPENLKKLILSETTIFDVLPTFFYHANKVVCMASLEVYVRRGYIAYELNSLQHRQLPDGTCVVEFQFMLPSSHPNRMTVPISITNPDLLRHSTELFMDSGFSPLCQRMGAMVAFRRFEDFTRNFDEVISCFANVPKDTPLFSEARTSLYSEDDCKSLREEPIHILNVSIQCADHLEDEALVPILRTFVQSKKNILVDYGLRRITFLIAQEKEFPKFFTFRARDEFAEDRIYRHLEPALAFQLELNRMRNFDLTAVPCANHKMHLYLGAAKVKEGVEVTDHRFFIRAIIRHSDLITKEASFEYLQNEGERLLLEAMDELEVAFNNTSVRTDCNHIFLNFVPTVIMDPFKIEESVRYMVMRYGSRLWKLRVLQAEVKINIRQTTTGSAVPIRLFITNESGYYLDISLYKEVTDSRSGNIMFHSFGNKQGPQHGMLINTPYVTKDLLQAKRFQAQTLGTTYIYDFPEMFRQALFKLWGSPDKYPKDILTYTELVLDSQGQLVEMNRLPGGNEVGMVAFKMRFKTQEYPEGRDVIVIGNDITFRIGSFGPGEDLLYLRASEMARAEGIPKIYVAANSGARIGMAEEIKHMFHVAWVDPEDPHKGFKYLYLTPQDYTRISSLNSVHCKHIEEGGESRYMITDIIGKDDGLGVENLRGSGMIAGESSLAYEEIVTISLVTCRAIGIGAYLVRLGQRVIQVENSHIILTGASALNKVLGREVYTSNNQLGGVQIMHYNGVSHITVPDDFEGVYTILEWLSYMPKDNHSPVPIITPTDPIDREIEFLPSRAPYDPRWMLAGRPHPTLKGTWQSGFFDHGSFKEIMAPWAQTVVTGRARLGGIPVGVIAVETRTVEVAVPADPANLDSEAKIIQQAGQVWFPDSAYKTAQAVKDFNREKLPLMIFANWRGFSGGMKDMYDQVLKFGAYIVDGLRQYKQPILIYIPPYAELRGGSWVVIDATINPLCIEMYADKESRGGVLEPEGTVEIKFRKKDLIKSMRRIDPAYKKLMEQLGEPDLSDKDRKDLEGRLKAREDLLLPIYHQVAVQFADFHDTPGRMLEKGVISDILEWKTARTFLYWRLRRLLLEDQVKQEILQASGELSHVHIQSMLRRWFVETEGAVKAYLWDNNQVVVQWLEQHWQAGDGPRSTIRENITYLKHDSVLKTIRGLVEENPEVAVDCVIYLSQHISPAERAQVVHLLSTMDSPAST

SMILES | IC50 [nM]
CC(O)C(=O)N[C@@H](C)c1ccc(CN2CCc3cc(OC[C@@H]4CC4(F)F)ccc3C2)cc1 (some centres unmarked) [Example 2.027] | 130
CC(=O)N[C@@H](C)c1ccc(CN2Cc3ccc(OCC4CC4(F)F)cc3C(F)C2)cc1 (some centres unmarked) [Example 1.092] | 16
CC(=O)NC(C)c1ccc(CN2CCc3cc(OCCC(F)(F)F)ccc3C2)cc1 (centres unmarked) [Example 1.014] | 95
CC(=O)NC(C)c1ccc(CN2CCc3c(ccc4c3OCCO4)C2)cc1 (centres unmarked) [Example 1.029] | 228
C[C@H](NC(=O)C1CC1)c1ccc(CN2CCc3c(Br)cccc3C2)cc1 [Example 2.009] | 249
CC(=O)N[C@@H](C)c1ccc(CN2Cc3ccc(OC4CCC4)cc3C(O)C2)cc1 (some centres unmarked) [Example 1.099] | 421
CC(=O)NC(C)c1ccc(CN2CCc3c(ccc(OCC4CC4(F)F)c3Br)C2)cc1 (centres unmarked) [Example 1.031] | 76
CCC(=O)N[C@@H](C)c1ccc(CN2Cc3ccc(OCC4CC4(F)F)cc3C(F)C2)cc1 (some centres unmarked) [Example 3.027] | 38
C[C@H](NC(=O)c1cncs1)c1ccc(CN2CCc3c(Br)cccc3C2)cc1 [Example 2.010] | 179
C[C@H](NC(=O)c1ccon1)c1ccc(CN2CCc3cc(OCC4CC4(F)F)ccc3C2)cc1 (some centres unmarked) [Example 3.011] | 52
CC(=O)N[C@@H](C)c1ccc(CN2CCc3c(Br)cccc3C2)cc1 [Example 7.004] | 148
CC(=O)N[C@@H](C)c1ccc(CN2CCc3c(cccc3C(=O)NCc3ccccc3)C2)cc1 [Example 8.001, 2-[4-((S)-1-Acetylamino-ethyl)-benzyl]-1,2,3,4-tetrahydro-isoquinoline-5-carboxylic acid benzylamide] | 715
CC(=O)N[C@@H](C)c1ccc(CN2CCc3cc(OCC4CC4)ccc3C2)cc1 [Example 1.088] | 12
CC(=O)N[C@@H](C)c1ccc(CN2CCc3c(cccc3OC3CCC3)C2)cc1 [Example 7.005] | 58
C[C@H](NC(=O)CC#N)c1ccc(CN2CC(=O)c3cc(OCC4CC4)ccc3C2)cc1 [Example 2.043] | 428
CC(=O)NC(C)c1ccc(CN2CCc3c(cccc3OC(C)C)C2)cc1 (centres unmarked) [Example 1.005] | 252
C[C@H](NC(=O)C1CCC(=O)N1)c1ccc(CN2CCc3cc(OC[C@@H]4CC4(F)F)ccc3C2)cc1 (some centres unmarked) [Example 2.029] | 329
Cc1nocc1C(=O)N[C@@H](C)c1ccc(CN2CCc3cc(OCC4CC4(F)F)ccc3C2)cc1 (some centres unmarked) [Example 3.020] | 33
CNC(=O)N[C@@H](C)c1ccc(CN2CCc3cc(OCC4CC4(F)F)ccc3C2)cc1 (some centres unmarked) [Example 5.002] | 59
CC(=O)Nc1nc(C)c(C(=O)N[C@@H](C)c2ccc(CN3Cc4ccc(OCC5CC5)cc4C(O)C3)cc2)s1 (some centres unmarked) [Example 3.045] | 231
CC(=O)N[C@@H](C)c1ccc(CN2Cc3ccc(OC(C)C)cc3C(F)C2)cc1 (some centres unmarked) [Example 1.100] | 30
CCOc1ccc2c(c1)CCN(Cc1ccc(C(C)NC(C)=O)cc1)C2 (centres unmarked) [Example 1.016] | 273

SMILES | IC50 [nM]
C[C@H](NC(=O)c1cnn(C)c1N)c1ccc(CN2CCc3cc(OCC4CC4(F)F)ccc3C2)cc1 (some centres unmarked) [Example 3.018] | 208
C[C@H](NC(=O)CC#N)c1ccc(CN2Cc3ccc(OCC4CC4(F)F)cc3C(O)C2)cc1 (some centres unmarked) [Example 2.037] | 806
CC(=O)N[C@@H](C)c1ccc(CN2CC(=O)c3cc(OCC4CC4)ccc3C2)cc1 [Example 1.090] | 65
CC(=O)N[C@@H](C)c1ccc(CN2CCc3cc(OCC4CC4(F)F)ccc3C2C)cc1 (some centres unmarked) [Example 1.082] | 39
COc1c(OCC(C)C)ccc2c1CCN(Cc1ccc([C@H](C)NC(=O)C3CC3)cc1)C2 [Example 1.057] | 102
C[C@H](NC(=O)C1CC1)c1ccc(CN2CCc3cc(OC[C@H]4CC4(F)F)ccc3C2)cc1 [Example 1.052] | 24
COc1c(OCC2CC2)ccc2c1CCN(Cc1ccc([C@H](C)NC(C)=O)cc1)C2 [Example 1.076] | 68
CC(=O)NC(C)c1ccc(CN2CCc3c(ccc(OCC(C)C)c3Cl)C2)cc1 (centres unmarked) [Example 1.030] | 58
CC(=O)NC(C)c1ccc(CN2CCc3cc(OC4CCC4)ccc3C2)cc1 (centres unmarked) [Example 1.020] | 110
C[C@H](NC(=O)Cc1cncnc1)c1ccc(CN2CC(=O)c3cc(OCC4CC4)ccc3C2)cc1 [Example 2.044] | 446
CC(=O)N[C@@H](C)c1ccc(CN2CCc3c(cccc3C(F)(F)F)C2)cc1 [Example 7.002] | 104
CC(=O)NC(C)c1ccc(CN2CCc3cc(OCC4CC(F)(F)C4)ccc3C2)cc1 (centres unmarked) [Example 1.015] | 47
CC(=O)NC(C)c1ccc(CN2CCc3c(cccc3OCC3CC3)C2)cc1 (centres unmarked) [Example 1.006] | 878
CC(=O)NC(C)c1ccc(CN2CCc3cc(OCC(F)F)ccc3C2)cc1 (centres unmarked) [Example 1.010] | 614
CC(O)C(=O)N[C@@H](C)c1ccc(CN2CC(=O)c3cc(OCC4CC4)ccc3C2)cc1 (some centres unmarked) [Example 2.042] | 624
C[C@H](NC(=O)C1CC1)c1ccc(CN2CCc3cc(OC4CCC4)ccc3C2)cc1 [Example 1.044] | 193
CCCOc1cccc2c1CCN(Cc1ccc(C(C)NC(C)=O)cc1)C2 (centres unmarked) [Example 1.019] | 326
C[C@H](NC(=O)[C@@H](C)O)c1ccc(CN2Cc3ccc(OCC4CC4)cc3C(F)C2)cc1 (some centres unmarked) [Example 3.061] | 90
CC(=O)NC(C)c1ccc(CN2CCc3c(cccc3OCC3CC3(F)F)C2)cc1 (centres unmarked) [Example 1.008] | 492
C[C@H](NC(=O)c1cnco1)c1ccc(CN2CCc3cc(OCC4CC4(F)F)ccc3C2)cc1 (some centres unmarked) [Example 3.009] | 59
CC(C#N)C(=O)N[C@@H](C)c1ccc(CN2CCc3cc(OCC4CC4(F)F)ccc3C2)cc1 (some centres unmarked) [Example 3.003] | 91
C[C@H](NC(=O)C1CC1)c1ccc(CN2CC(=O)c3cc(OCC4CC4(F)F)ccc3C2)cc1 (some centres unmarked) [Example 7.006] | 551

SMILES | IC50 [nM]
C[C@H](NC(=O)C1CCC1)c1ccc(CN2Cc3ccc(OCC4CC4)cc3C(O)C2)cc1 (some centres unmarked) [Example 3.041] | 490
C[C@H](NC(=O)c1ncc[nH]1)c1ccc(CN2Cc3ccc(OCC4CC4)cc3C(F)C2)cc1 (some centres unmarked) [Example 3.033] | 358
COC(=O)N[C@@H](C)c1ccc(CN2Cc3ccc(OCC4CC4)cc3C(O)C2)cc1 (some centres unmarked) [Example 5.008] | 369
C[C@H](NC(=O)C1CC1)c1ccc(CN2CCc3cc(OCC4CCC4)ccc3C2)cc1 [Example 2.017] | 38
CCC(=O)N[C@@H](C)c1ccc(CN2CCc3c(cccc3OC3CCC3)C2)cc1 [Example 2.013] | 166
COc1c(OCC2CCC2)ccc2c1CCN(Cc1ccc([C@H](C)NC(C)=O)cc1)C2 [Example 1.073] | 40
CCC(=O)N[C@@H](C)c1ccc(CN2Cc3ccc(OCC4CC4)cc3C(O)C2)cc1 (some centres unmarked) [Example 3.039] | 136
COc1c(OC2CCC2)ccc2c1CCN(Cc1ccc([C@H](C)NC(C)=O)cc1)C2C (some centres unmarked) [Example 1.085] | 280
CC(=O)N[C@@H](C)c1ccc(CN2Cc3ccc(OCC4CC4)cc3C(F)C2)cc1 (some centres unmarked) [Example 1.093] | 20
CCCOc1ccc2c(c1)CCN(Cc1ccc(C(C)NC(C)=O)cc1)C2 (centres unmarked) [Example 1.017] | 60
C[C@H](NC(=O)[C@@H]1CCC(=O)N1)c1ccc(CN2Cc3ccc(OCC4CC4)cc3C(F)C2)cc1 (some centres unmarked) [Example 3.052] | 153
COc1cccc2c1CCN(Cc1ccc([C@H](C)NC(=O)c3cn[nH]c3)cc1)C2 [Example 2.004] | 184
C[C@H](NC(=O)C1(O)CC1)c1ccc(CN2CCc3cc(OCC4CC4)ccc3C2)cc1 [Example 2.024] | 150
COc1c(OCCC(F)F)ccc2c1CCN(Cc1ccc([C@H](C)NC(C)=O)cc1)C2 [Example 1.072] | 141
CC(=O)NC(C)c1ccc(CN2CCc3c(ccc(OCC4CC4)c3Br)C2)cc1 (centres unmarked) [Example 1.022] | 126
CCOc1cccc2c1CCN(Cc1ccc(C(C)NC(C)=O)cc1)C2 (centres unmarked) [Example 1.018] | 407
COc1c(OCC(F)F)ccc2c1CCN(Cc1ccc([C@H](C)NC(C)=O)cc1)C2 [Example 1.071] | 340
CC(C)Oc1ccc2c(c1)CCN(Cc1ccc([C@H](C)NC(=O)C3CC3)cc1)C2 [Example 1.047] | 71
C[C@H](NC(=O)C1CC(F)C1)c1ccc(CN2Cc3ccc(OCC4CC4(F)F)cc3C(O)C2)cc1 (some centres unmarked) [Example 2.036] | 408
C[C@H](NC(=O)C1CC1)c1ccc(CN2CCc3cc(OCCCF)ccc3C2)cc1 [Example 2.016] | 299
C[C@H](NC(=O)C1CCC(=O)O1)c1ccc(CN2Cc3ccc(OCC4CC4)cc3C(F)C2)cc1 (some centres unmarked) [Example 3.054] | 245
